Among the data in US9512120B2, “Microbicidally active imidazopyridine derivatives” (Syngenta Participations AG, priority 2013, dated 2016) are pest or weed control and inhibition values, retold here.

The subject of one experiment is Pyrenophora teres. Briefly: Pyrenophora teres / barley / leaf disc preventative (net blotch). The format is in vivo. The conditions noted are these: foliar, barley leaf segments cv Hasso, inoculated two days after application, assessed 5-7 days after application, read-out: control of Pyrenophora teres (disease control compared to untreated). As for the experimental part: Pyrenophora Teres/Barley/Leaf Disc Preventative (Net Blotch): Barley leaf segments cv Hasso are placed on agar in a 24-well plate and sprayed with formulated test compound diluted in water at an application rate of 200 ppm. The leaf segments are inoculated with a spore suspension of the fungus two days after application of the test solution. The inoculated leaf segments are incubated at 20° C. and 65% relative humidity under a light regime of 12/12 h (light/dark) in a climate cabinet and the activity of a compound is assessed as disease control compared to untreated when an appropriate level of disease damage appears in untreated check leaf segments (5-7 days after application).

Experiment [1] has as its system Thanatephorus cucumeris (Rhizoctonia solani). Briefly: Thanatephorus cucumeris (Rhizoctonia solani) / liquid culture (foot rot, damping-off). Format: cell-based. Conditions: PDB, 24° C., 3-4 days after application, read-out: control of Thanatephorus cucumeris (inhibition of growth, photometric). The procedure:
Thanatephorus cucumeris (Rhizoctonia solani)/Liquid Culture (Foot Rot, Damping-Off): Mycelia fragments of a newly grown liquid culture of the fungus are directly mixed into nutrient broth (PDB potato dextrose broth). After placing a DMSO solution of the test compounds into a 96-well microtiter plate at an application rate of 200 ppm, the nutrient broth containing the fungal material was added. The test plates were incubated at 24° C. and the inhibition of growth was determined photometrically 3-4 days after application.

Experiment [2] deals with Mycosphaerella graminicola (Septoria tritici). The experiment in a line: Mycosphaerella graminicola (Septoria tritici) / liquid culture (Septoria blotch). The format is cell-based. Conditions: Zymoseptoria tritici, PDB, 24° C., 4-5 days after application, read-out: control of Mycosphaerella graminicola (inhibition of growth, photometric). As for the experimental part: Mycosphaerella graminicola (Septoria tritici)/Liquid Culture (Septoria Blotch): Conidia of the fungus from cryogenic storage were directly mixed into nutrient broth (PDB potato dextrose broth). After placing a DMSO solution of test compound into a 96-well microtiter plate at an application rate of 200 ppm, the nutrient broth containing the fungal spores was added. The test plates were incubated at 24° C. and the inhibition of growth was determined photometrically 4-5 days after application.

Where only a bound is given, the exact number is not on record here.

The inhibition is how much of the control response was suppressed. Regarding `CCn1c(-n2ncnc2N)nc2cncc(-c3ccc(C(F)(F)F)nc3)c21` [Compound 63, 2-[1-ethyl-7-[6-(trifluoromethyl)pyridin-3-yl]imidazo[4,5-c]pyridin-2-yl]-1,2,4-triazol-3-amine], in the experiment with Pyrenophora teres, the pest or weed control at 200 ppm is not below 80%. For the same compound, the inhibition at 20 ppm in experiment [1] was not below 80%. Take `CCn1c(-n2ncnc2N2C(=O)CCC2=O)nc2cncc(C(C)=O)c21` [Compound 113, 1-[2-(7-acetyl-1-ethylimidazo[4,5-c]pyridin-2-yl)-1,2,4-triazol-3-yl]pyrrolidine-2,5-dione]: the pest or weed control at 200 ppm with Pyrenophora teres is not below 80%. The same measure, in the same setting: the value for `Cc1cncc2nc(-n3ncnc3N)n(C3CC3)c12` [Compound 175, 2-(1-cyclopropyl-7-methyl-imidazo[4,5-c]pyridin-2-yl)-1,2,4-triazol-3-amine] was not below 80%. As for `CCOC(=O)C(C)O/N=C(\C)c1cncc2nc(-n3ncnc3N)n(CC)c12` (stereo not shown) [Compound 159], the inhibition at 20 ppm in experiment [1] is not below 80%. The same measure, in the same setting: the value for `Nc1ncnn1-c1nc2cncc(-c3ccccc3Cl)c2n1C1CC1` [Compound 125, 2-[7-(2-chlorophenyl)-1-cyclopropylimidazo[4,5-c]pyridin-2-yl]-1,2,4-triazol-3-amine] was not below 80%. For `CCn1c(-n2ncnc2N)nc2cncc(-c3cccnc3OC)c21` [Compound 58, 2-[1-ethyl-7-(2-methoxypyridin-3-yl)imidazo[4,5-c]pyridin-2-yl]-1,2,4-triazol-3-amine], the pest or weed control at 200 ppm in the experiment with Pyrenophora teres is not below 80%. Besides, the inhibition at 20 ppm in experiment [1] is not below 80%. For the compound `CCn1c(-n2ncnc2N)nc2cncc(C=Cc3ccc(C)cc3)c21` [Compound 71, 2-[1-ethyl-7-[2-(4-methylphenyl)ethenyl]imidazo[4,5-c]pyridin-2-yl]-1,2,4-triazol-3-amine], the inhibition at 20 ppm in experiment [1] is not below 80%.

`CCn1c(-n2ncnc2N)nc2cncc(-c3ccc(C)c([N+](=O)[O-])c3)c21` [Compound 44, 2-[1-ethyl-7-(4-methyl-3-nitrophenyl)imidazo[4,5-c]pyridin-2-yl]-1,2,4-triazol-3-amine]: in experiment [1], the inhibition at 20 ppm was not below 80%. Consider `CCn1c(-n2ncnc2N)nc2cncc(-c3ccccc3C(F)(F)F)c21` [Compound 32, 2-[1-ethyl-7-[2-(trifluoromethyl)phenyl]imidazo[4,5-c]pyridin-2-yl]-1,2,4-triazol-3-amine], for which the pest or weed control at 200 ppm with Pyrenophora teres was not below 80%. In addition, the inhibition at 20 ppm in experiment [1] was not below 80%. As for `CCn1c(-n2ncnc2N2C(=O)CCC2=O)nc2cncc(-c3ccc(Cl)cc3Cl)c21` [Compound 114], the pest or weed control at 200 ppm with Pyrenophora teres is not below 80%. As for `CCn1c(-n2ncnc2N)nc2cncc(-c3cc4ccccc4o3)c21` [Compound 51, 2-[7-(1-benzofuran-2-yl)-1-ethylimidazo[4,5-c]pyridin-2-yl]-1,2,4-triazol-3-amine], the pest or weed control at 200 ppm in the experiment on Pyrenophora teres is not below 80%. Moreover, the inhibition at 20 ppm in experiment [1] was not below 80%. As to `CCn1c(-n2ncnc2N)nc2cncc(-c3cnc(Cl)c(C)c3)c21` [Compound 65, 2-[7-(6-chloro-5-methylpyridin-3-yl)-1-ethylimidazo[4,5-c]pyridin-2-yl]-1,2,4-triazol-3-amine], in the experiment with Pyrenophora teres, the pest or weed control at 200 ppm is not below 80%. Also, in experiment [1], the inhibition at 20 ppm was not below 80%. As for `CCn1c(-n2ncnc2N)nc2cncc(C(C)=NOCc3cc(Cl)c(Cl)cc3Cl)c21` [Compound 164], the inhibition at 20 ppm in experiment [2] and in experiment [1] was not below 80% in each case. The pest or weed control at 200 ppm in the experiment on Pyrenophora teres is not below 80%. Consider `Nc1ncnn1-c1nc2cncc(-c3ccc(Cl)cc3Cl)c2n1C1CC1` [Compound 119, 2-[1-cyclopropyl-7-(2,4-dichlorophenyl)imidazo[4,5-c]pyridin-2-yl]-1,2,4-triazol-3-amine], for which the inhibition at 20 ppm in experiment [2] and in experiment [1] was not below 80% throughout. Further, the pest or weed control at 200 ppm in the experiment on Pyrenophora teres is not below 80%. Turning to `CCn1c(-n2ncnc2N)nc2cncc(C=CC3CCCCC3)c21` [Compound 70, 2-[7-(2-cyclohexylethenyl)-1-ethylimidazo[4,5-c]pyridin-2-yl]-1,2,4-triazol-3-amine], the inhibition at 20 ppm in experiment [2] is not below 80%. Besides, in the experiment on Pyrenophora teres, the pest or weed control at 200 ppm was not below 80%.
